Where a SMILES comes first, the peptide text is derived from it. [ ]: non-standard residue; d: D form.
How the values were obtained:
[1] = tested on: CT26, colon carcinoma; experiment: Tumor growth in CT26-injected Balb/c mice; format: in vivo
Description: (§1) CT26, EL4 were maintained at 37° C. in a humidified 5% CO2 atmosphere in RPMA1640 medium supplemented with 20% (vol/vol) heat-inactivated fetal bovine serum. For animal experiments, the cells were passaged two to five times after re-growth from frozen stocks. Log phase CT26 cells were detached from tissue culture flasks with 0.25% trypsin and 0.03% EDTA. CT26 and EL4 were washed and resuspended in PBS immediately before injection.
In order to assess the antitumor effect of immuno-modulating peptide, Trp-Arg-Tyr-Met-Val-D-Met-CONH2, (WRYMVm; (SEQ ID NO: 4)), CT26, colon carcinoma was tested in Balb/c mice model. Tumor mass was measured in size every two days after 6 days from tumor cell inoculation.
To find the effective tumor-suppressing dose of WRYMVm, 0.1 μg/mouse, 0.25 μg/mouse, and 1 μg/mouse of WRYMVm were administered to CT26/Balb/c model. […] A similar phenomenon is easily found in chemotactic migration of leukocytes. In view of the fact that FPRL1, which is a target receptor for WRYMVm, is related to the chemotactic migration event, it is concluded that WRYMVm-induced antitumor effect might be derived from leukocyte infiltration event. Therefore, it is quite necessary to reveal the direct relationship between the WRYMVm-induced antitumor effect and the leukocyte infiltration event.

[2] = tested on: tumor
Description: Specific pathogen free male Balb/c mice and C57/BL6 mice were purchased from Hyo Chang Bioscience (Taegu, Korea). All mice were maintained under specific pathogen-free conditions in the animal facility of the Immunomodulation Research Center, University of Ulsan, Korea and used at 6-8 week of age. CT26 and EL4 were injected s.c. to Balb/c mice and C57/BL6 mice respectively, on day 0. WRYMVm (SEQ ID NO: 4) and CpG ODN were administered systemically (i.p.; 200 μl) from day six for every 4 days while a control group received PBS or 100 μg/mice for CpG ODN. Vincristine was administered via i.p. injection on the same days just before 8 hours from peptide or CpG ODN injection. On every 2 days after inoculation, tumor mass was measured using digital Varier calipers. Tumor volumes were calculated as [length×width×height×π/6]. The date of death is recorded as the date when mice spontaneously succumbed to tumor or were sacrificed because of a moribund state, or when the tumor width measured 20 mm (a width at which the tumor is not going to regress).
The results are expressed as the mean SE from the 10 mice/group. In the FIGS. 9 to 12, * indicates p<0.01 and ** indicates p<0.05 in comparison with values obtained from vehicle (PBS) treated control.
Therefore, i.p. 2 μg/mouse of vincristine was injected 8 hours prior to the peptide injection.

[3] = tested on: human neutrophils; experiment: Superoxide generation in human neutrophils (cytochrome c reduction); format: cell-based; conditions: for O^2− (nmol/10^6 cells), superoxide generation: cytochrome c reduction
Description: Peripheral blood leukocyte concentrates were donated by the Ulsan Red Cross Blood Center (Ulsan, Korea). Human neutrophils were isolated according to the standard procedures of dextran sedimentation, hypotonic lysis of erythrocytes, and a lymphocyte separation medium gradient as described above (9). The isolated human neutrophils were then used promptly.
The activity of the peptides, WKYMVm, peptides of SEQ ID NOs: 1 to 24, and wkymvm on superoxide generation in human neutrophils was measured. Superoxide anion generation was quantified by measuring reduction of cytochrome c using a microtiter 96-well plate ELISA reader (Bio-Tekinstruments, EL312e, Winooski, Vt.) as described (14). The human neutrophils (1×10^6 cells/100 μl of RPMI 1640 medium per well of a 96-well plate) were preincubated with 50 μM cytochrome c at 37° C. for 1 min and then incubated with the indicated concentrations of peptides. The superoxide generation was measured as a change in light absorption at 550 nm over 5 minutes at 1 min intervals. From at least four independent experiments, peptides with active amino acids at each position were chosen.

[4] = target: T1, FPRL1 (Homo sapiens, UniProt P25090); experiment: [Ca2+]i increase in FPRL1-expressing RBL-2H3 cells (fura-2); format: cell-based
T1 construct: expressed in transfected cells; host or cells: RBL-2H3 (rat basophilic leukemia) cells, G418-selected
T1 sequence (P25090 1-351): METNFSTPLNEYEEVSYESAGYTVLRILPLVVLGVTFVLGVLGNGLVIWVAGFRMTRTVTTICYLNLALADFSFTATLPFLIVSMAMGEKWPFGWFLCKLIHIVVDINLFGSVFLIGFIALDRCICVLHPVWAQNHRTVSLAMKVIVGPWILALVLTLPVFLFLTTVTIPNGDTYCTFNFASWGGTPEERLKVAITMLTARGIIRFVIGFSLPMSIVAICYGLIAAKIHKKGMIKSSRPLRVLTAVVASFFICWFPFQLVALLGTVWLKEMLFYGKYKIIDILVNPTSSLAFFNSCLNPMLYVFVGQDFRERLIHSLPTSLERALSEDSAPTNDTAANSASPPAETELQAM
Description: […] The level of [Ca^2+]i was determined fluorometrically by Grynkiewicz's method using fura-2/AM (15). Briefly, prepared cells were incubated with 3 μM fura-2/AM at 37° C. for 50 min in a fresh serum-free RPMI 1640 medium under continuous stirring. 2×10^6 cells were aliquoted for each assay in Ca^2+-free Locke's solution (154 mM NaCl, 5.6 mM KCl, 1.2 mM MgCl2, 5 mM HEPES, pH 7.3, 10 mM glucose, and 0.2 mM EGTA). Fluorescence changes at the dual excitation wavelengths of 340 nm and 380 nm and the emission wavelength of 500 nm were measured, and the calibrated fluorescence ratio was translated into [Ca^2+]i. The peak level of the increased [Ca^2+]i was monitored.
[…] The level of [Ca^2+]i was determined by the same procedures as above. The peak level of the increased [Ca^2+]i was monitored.

[5] = tested on: EL4, lymphoma cells; experiment: Tumor growth in EL4-injected C57/BL6 mice; format: in vivo; conditions: EL4 2×10^5 cells/mouse s.c.
Description: as §1
To confirm the antitumor effect of WRYMVm, another tumor model, EL4, lymphoma cells was tested. In order to form the tumor mass of EL4, EL4 (2×10^5 cells/mouse) were injected s.c to C57/BL6 mice. […] Overall, it appears obvious that WRYMVm has a tumor growth-suppressing effect in mice model.

[6] = target: T2, FPR (Homo sapiens, UniProt P21462); experiment: ERK phosphorylation in FPR-expressing RBL-2H3 cells (immunoblot); format: cell-based; conditions: pretreatment prior to 1 μM WKYMVm, PTX 100 ng/ml, LY294002 50 μM, GFX 5 μM, BAPTA/AM 10 μM, PD98059 50 μM
T2 construct: expressed in transfected cells; host or cells: RBL-2H3 (rat basophilic leukemia) cells, G418-selected
T2 sequence (P21462 1-350): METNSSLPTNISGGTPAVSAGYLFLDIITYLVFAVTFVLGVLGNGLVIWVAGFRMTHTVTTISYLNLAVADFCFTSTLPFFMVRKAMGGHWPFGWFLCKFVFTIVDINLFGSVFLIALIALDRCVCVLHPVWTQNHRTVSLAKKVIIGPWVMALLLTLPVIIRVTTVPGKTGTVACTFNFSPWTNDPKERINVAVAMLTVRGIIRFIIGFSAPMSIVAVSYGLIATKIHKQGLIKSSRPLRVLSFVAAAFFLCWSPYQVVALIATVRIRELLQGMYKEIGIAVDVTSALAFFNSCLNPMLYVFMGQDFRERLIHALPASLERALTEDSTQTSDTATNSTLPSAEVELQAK
Description: (§2) Cultured RBL-2H3 cells were aliquoted into 2×10^6 cells and stimulated with the indicated concentrations of WKYMVm and the peptides of the present invention for the indicated lengths of time. FPR- or FPRL1-expressing RBL-2H3 cells were stimulated with 1 μM WKYMVm for various periods of time (FIG. 3A). Two cells were preincubated with a vehicle or 100 ng/ml of PTX (24 hr), 50 μM of LY294002 (15 min), 5 μM of GFX (15 min), 10 μM BAPTA/AM (60 min), or 50 μM PD98059 (60 min) prior to 1 μM of WKYMVm treatment (FIG. 3B). FPR- or FPRL1-expressing RBL2H3 cells were stimulated with 10 μM of the peptides of the present invention for 2 min or 5 min, respectively (FIG. 3C).
(§3) After stimulation, the cells were washed with serum-free RPMI and lysed in a lysis buffer (20 mM Hepes, pH 7.2, 10% glycerol, 150 mM NaCl, 1% Triton X-100, 50 mM NaF, 1 mM Na3VO4, 10 μg/ml leupeptin, 10 μg/ml aprotinin, and 1 mM phenylmethylsulfonyl fluoride). The detergent-insoluble materials were pelleted by centrifugation (12,000×g, 15 min, at 4° C.), and the soluble supernatant fraction was removed and stored at −80° C. or used immediately. Protein concentrations in the lysates were determined using the Bradford protein assay reagent.
(§4) Each sample ([…] of protein) was subjected to 10% SDS-PAGE and phosphorylated ERK was determined by an immunoblot analysis with an anti-phospho-ERK antibody. Protein samples were prepared for electrophoresis by addition of a concentrated sample buffer. The portions in the samples were then separated by an 10% SDS-polyacrylamide gel using the buffer system described by Laemmli (17).
(§5) Following the electrophoresis, a western blot analysis with an anti-ERK2 antibody was performed to confirm that the same amounts of samples were used for the experiments. The proteins were blotted onto nitrocellulose membranes. The nitrocellulose membranes were then blocked by incubation with TBS (Tris-buffered saline, 0.05% Tween-20) containing 5% non-fat dry milk. Subsequently, the membranes were incubated with anti-phospho-ERK antibody, anti-phospho-Akt antibody or anti-Akt antibody washed with TBS. For a PKC translocation assay, an antibody for PKC isozyme-specific was incubated. Antigen-antibody complexes were visualized after incubating the membrane with a 1:5000 diluted goat anti-rabbit IgG or goat anti-mouse IgG antibody coupled to horseradish peroxidase and using the enhanced chemiluminescence detection system.

[7] = target: T1, FPRL1; experiment: ERK phosphorylation in FPRL1-expressing RBL-2H3 cells (immunoblot); format: cell-based; conditions: pretreatment prior to 1 μM WKYMVm, PTX 100 ng/ml, LY294002 50 μM, GFX 5 μM, BAPTA/AM 10 μM, PD98059 50 μM
Description: as §2, §3, §4, §5

[8] = target: T2, FPR; experiment: Exocytosis: β-hexosaminidase secretion in FPR-expressing RBL-2H3 cells; format: cell-based; conditions: FPR cells; 10 μM BAPTA/AM prior to 1 μM WKYMVm
Description: (§6) Granule secretion is one of the most important function of mast cells (20). The effect of WKYMVm on granule secretion was checked by measuring β-hexosaminidase secretion as described above (18). Briefly, RBL-2H3 cells (2×10^5/well) expressing FPR or FPRL1 were cultured overnight in a 24-well tissue culture plate. The cells were washed twice with Tyrode's buffer (137 mM NaCl, 12 mM NaHCO3, 5.6 mM glucose, 2.7 mM KCl, 1 mM CaCl2, 0.5 mM MgCl2, 0.4 mM NaH2PO4, 0.1g/100 ml BSA, and 25 mM HEPES, pH 7.4) and stimulated with each peptide. Various concentrations of WKYMVm were treated in FPR- or FPRL1-expressing RBL-2H3 cells (FIG. 5A). 1 μM of WKYMVm was used to stimulate two cell lines in the absence or presence of 10 μM BAPTA/AM (FIG. 5B). The reaction was terminated 20 min after stimulation by placing the plate on ice. Secretion of β-hexosaminidase into the medium was determined by incubating 50 μl of supernatant or cell lysate with 25 μl of 5 mM p-nitrophenyl-N-acetyl-β-D-glucosamide in 0.1 M sodium citrate buffer (pH 3.8) at 37° C. for 2 hr. At the end of the incubation, 50 μl of 0.4 M Na2CO3 were added. Absorbance was monitored at 405 nm. Data are means ±S.E. of a single representative of three experiments performed in triplicate. Values (means ±S.E.) were expressed as a percent of total β-hexosaminidase present in the cells.
From the new finding that cytosolic calcium release was induced by WKYMVm and many of the substituted peptides of WKYMVm but not by some of them (WKGMVm (SEQ ID NO: 1), WKRMVm (SEQ ID NO: 11), D-Met^6 substituted peptides), the effect of the peptides on granule secretion in RBL cells was checked. 10 μM of each peptide was treated in FPR- (FIG. 6A) or FPRL1-expressing RBL-2H3 cells (FIG. 6B). The peptide-induced secretion of β-hexosaminidase was determined as above. Data are means ±S.E. of a single representative of three experiments performed in triplicate.

[9] = target: T1, FPRL1; experiment: Exocytosis: β-hexosaminidase secretion in FPRL1-expressing RBL-2H3 cells; format: cell-based; conditions: FPRL1 cells; 10 μM BAPTA/AM prior to 1 μM WKYMVm
Description: as §6
10 μM of each peptide was treated in FPR- (FIG. 6A) or FPRL1-expressing RBL-2H3 cells (FIG. 6B). The peptide-induced secretion of β-hexosaminidase was determined as above. Data are means ±S.E. of a single representative of three experiments performed in triplicate.

5′-TCGTCGTTTTGTCGTTTTGTCGTT-3′ [CpG ODN, reference compound]
effect on tumor growth ([1]; 100 μg/mouse i.p.): didn't show any effect on tumor growth
survival ([2]; survival rate, FIG. 12B): failed to prevent death

CSCC[C@H](NC(=O)[C@H](Cc1ccc(O)cc1)NC(=O)[C@H](CCCNC(=N)N)NC(=O)[C@@H](N)Cc1c[nH]c2ccccc12)C(=O)N[C@H](C(=O)N[C@H](CCSC)C(N)=O)C(C)C [WRYMVm-NH2, Trp-Arg-Tyr-Met-Val-D-Met-NH2] (H-WRYMV[dM]-NH2; N-terminus assumed)
superoxide generating activity ([3]; 100 nM of peptides): stimulated superoxide generation
O^2− (nmol/10^6 cells), superoxide generation ([3]; peptide 100 nM): 47.1 ± 11.23 nmol/10^6 cells
O^2− (nmol/10^6 cells), superoxide generation ([3]; peptide 10 μM): 38.2 ± 6.54 nmol/10^6 cells
[Ca^2+]i increasing activity [4]: higher affinity to FPRL1
EC50 ([4]; fura-2 loaded, read-out: EC50 (nM), intracellular calcium increase): 0.12 ± 0.01 nM
tumor suppression ([1]; 0.1 μg/mouse, compared with 0.25 and 1 μg/mouse): highest effectiveness in the tumor suppression
tumor suppression ([1]; 1 μg/mouse): the tumor suppressing effect was lowered
tumor growth in CT26-injected mice (figure legend) ([1]; FIGS. 9A and 9B): attenuates tumor growth
tumor mass suppression [5]: able to suppress tumor mass of EL4
tumor growth suppression / antitumor activity ([2]; vincristine i.p. 2 μg/mouse 8 hours prior to peptide injection): ability to suppress tumor growth

CC(=O)OCOC(=O)CN(CC(=O)OCOC(C)=O)c1ccccc1OCCOc1ccccc1N(CC(=O)OCOC(C)=O)CC(=O)OCOC(C)=O [BAPTA/AM]
effect of inhibitor pretreatment on WKYMVm-induced ERKs activation [6]: could not effect WKYMVm-induced ERK activation
effect of inhibitor pretreatment on WKYMVm-induced ERKs activation [7]: could not effect WKYMVm-induced ERK activation
effect on WKYMVm-induced granule secretion [8]: almost completely inhibited WKYMVm-induced granule secretion
effect on WKYMVm-induced granule secretion [9]: almost completely inhibited WKYMVm-induced granule secretion

Source: patent US7517857B2, “Immune-modulating peptide” (POSCO, priority 2002, dated 2009)
